Reference: ChEMBL document CHEMBL3407340, “Synthesis, radiolabeling and evaluation of novel 4-oxo-quinoline derivatives as PET tracers for imaging cannabinoid type 2 receptor” (Eur J Med Chem, 2015)

Molecular target: Cannabinoid receptor 1 (Homo sapiens, UniProt P21554)
Assay: Displacement of [3H]-CP-55940 from human CB1 receptor transfected in CHOK1 cells after 90 mins by liquid scintillation counting analysis
Format: cell-based, CHO-K1

Cannabinoid receptor 1, sequence (P21554 whole entry): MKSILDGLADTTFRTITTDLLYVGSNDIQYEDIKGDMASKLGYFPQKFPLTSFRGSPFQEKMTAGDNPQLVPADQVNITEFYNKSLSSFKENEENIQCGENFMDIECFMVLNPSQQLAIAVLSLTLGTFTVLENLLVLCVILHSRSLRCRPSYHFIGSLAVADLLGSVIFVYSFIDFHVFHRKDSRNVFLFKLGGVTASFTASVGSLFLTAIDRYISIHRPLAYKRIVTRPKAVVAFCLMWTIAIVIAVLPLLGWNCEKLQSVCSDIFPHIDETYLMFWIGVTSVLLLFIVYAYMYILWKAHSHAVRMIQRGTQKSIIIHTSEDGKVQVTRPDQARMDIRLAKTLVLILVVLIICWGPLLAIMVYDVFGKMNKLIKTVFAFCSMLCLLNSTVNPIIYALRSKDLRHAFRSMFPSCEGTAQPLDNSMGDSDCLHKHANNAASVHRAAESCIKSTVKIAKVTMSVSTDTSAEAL

| Compound | Ki |
| --- | --- |
| COc1cccc2c(=O)c(C(=O)NC(C)(C)C)cn(CCCF)c12 | > 10 µM |
| CCOCCn1cc(C(=O)NCCc2ccccc2)c(=O)c2cccc(OC)c21 | > 10 µM |
| CCCCn1cc(C(=O)NCC2CC2)c(=O)c2cccc(OC)c21 | > 10 µM |
